Assay results reported in patent US20090076029A1 (Palatin Technologies, Inc., priority 2007, published 2009).
Where two headings read alike, the source gives them in different places.

Assays:
[1] = biological target: T1, MC1-R; experiment: Competitive inhibition assay using [I125]-NDP-α-MSH, MC1-R membranes; assay type: binding, mouse; settings: for Inhibition at 1 μM (NDP-α-MSH) MC1-R: 1 μM compound
T1 construct: other: 1 μM compound

[2] = biological target: T2, hMC3-R; experiment: Competitive inhibition assay using [I125]-NDP-α-MSH, hMC3-R membranes; assay type: binding, human; settings: for Ki: read-out: Ki (nM) (NDP-α-MSH) MC3-R
T2 construct: expressed in transfected cells; host or cells: HEK-293
Outline: (§1)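 Single-concentration displacement (usually 1 μM compound) of 0.2–0.4 nM [125I]-NDP-α-MSH, run 90 min at room temperature in pH 7.2 HEPES containing MgCl2, CaCl2 and KCl. Receptor sources: transfected HEK-293 membranes for human MC3-R/MC4-R/MC5-R, B-16 mouse melanoma membranes for MC1-R. Bound counts normalised to 1 μM α-MSH-defined specific binding; triplicates averaged, values below 0% set to 0%.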

[3] = biological target: T3, hMC4-R; experiment: Competitive inhibition assay using [I125]-NDP-α-MSH, hMC4-R membranes; assay type: binding, human; settings: for attenuation of binding of α-MSH and AgRP to MC4-R: both ligands (NDP-α-MSH and AgRP), summary
T3 construct: expressed in transfected cells; host or cells: HEK-293

[4] = biological target: T4, hMC5-R; experiment: Competitive inhibition assay using [I125]-NDP-α-MSH, hMC5-R membranes; assay type: binding, human; settings: for Ki: read-out: Ki (nM) (NDP-α-MSH) MC5-R
T4 construct: expressed in transfected cells; host or cells: HEK-293
Outline: as §1

[5] = test system: T3, hMC4-R; assay type: binding, human; settings: for Inhibition at 1 μM (AgRP) MC4-R: 1 μM compound
Outline: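 Membranes from hMC4-R-expressing cells incubated 1 h at 37 °C with 0.2 nM [I^125]-AgRP (83-132) and increasing compound in 25 mM HEPES pH 7.5, 100 mM NaCl, 2 mM CaCl2, 2 mM MgCl2, 0.3 mM 1,10-phenanthroline, 0.5% BSA. Filtration, gamma counting; specific binding kept ≤10% of added counts.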

[6] = test system: T3, hMC4-R; experiment: cAMP functional assay in HEK-293 cells expressing MC4-R (agonist, neutral antagonist/Schild); assay type: cell-based, human; settings: for intrinsic activity at MC4-R: NDP-α-MSH maximal stimulation = 1.0
Outline: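 Cells in EBSS/HEPES pH 7.5 with 0.3 mM IBMX, exposed to compound (0.05-5000 nM, 1% DMSO) for 1 h at 37 °C; cAMP by EIA, EC50 by nonlinear regression. Antagonism: 30 min compound pre-incubation, then 1 nM NDP-α-MSH for 1 h; Schild analysis over 0.005-5000 nM agonist gives pA2.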

[7] = test system: T5, MC1-R; experiment: cAMP functional assay, B-16 mouse melanoma cells expressing MC1-R; assay type: cell-based; settings: cAMP assay at 1 μM
T5 construct: from B-16 mouse melanoma cells (containing MC1-R); endogenous in cells; host or cells: B-16 mouse melanoma cells
Experimental: (§2) General method for EC50 determination in functional activity assay. Functional evaluation of compounds at melanocortin receptors was performed by measuring the accumulation of intracellular cAMP in HEK-293 cells expressing hMC3-R, hMC4-R or hMC5-R, and in B-16 mouse melanoma cells expressing MC1-R. Cells suspended in Earle's Balanced Salt Solution containing 10 mM HEPES (pH 7.5), 5 mM MgCl2, 1 mM glutamine, 0.1% albumin and 0.6 mM 3-isobutyl-1-methyl-xanthine, a phosphodiesterase inhibitor, were plated in 96 well plates at a density of 0.5×10^5 cells per well. Cells were incubated with the test compounds in the presence or absence of α-MSH for 1 hour at 37° C. cAMP levels in the cell lysates were measured using an EIA kit (Amersham). Data analysis and EC50 values were determined using nonlinear regression analysis with Prism Graph-Pad software.
(§3) Functional status. The agonist/antagonist status with respect to MC1-R, MC-3R, MC4-R and MC5-R of certain compounds of the invention was determined.

[8] = test system: T2, hMC3-R; experiment: cAMP functional assay, HEK-293 cells expressing hMC3-R; assay type: cell-based, human; settings: cAMP assay at 1 μM
Experimental: as §2, §3

[9] = test system: T4, hMC5-R; experiment: cAMP functional assay, HEK-293 cells expressing hMC5-R; assay type: cell-based, human; settings: cAMP assay at 1 μM
Experimental: as §2, §3

[10] = MC4-R membranes, Table 1, read-out: Ki (nM) I125-NPD-α-MSH
[11] = read-out: Ki (nM) (NDP-α-MSH) MC4-R
[12] = MC4-R membranes, Table 1, read-out: Ki (nM) I125-AgRP
[13] = cAMP assay, read-out: EC50 (nM) at MC4-R

Row | SMILES | Ki [1] | Inhibition at 1 μM (NDP-α-MSH) MC1-R [1] | Ki [2] | Ki [3, 10] | attenuation of binding of α-MSH and AgRP to MC4-R [3] | Ki [3, 11] | Ki [4] | Inhibition at 1 μM (AgRP) MC4-R [5] | Ki [5, 12] | Ki ([5]; read-out: Ki (nM) (AgRP) MC4-R) | functional status (pAg, Ag, Antag, Inactive) ([6]; MC4-R, Table 1) | EC50 ([6]; MC4-R, Table 1, read-out: EC50) | intrinsic activity at MC4-R [6] | EC50 [6, 13] | functional status at MC1-R [7] | functional status at MC3-R [8] | functional status at MC5-R [9] | other results
1 | C[C@@H]1CN(C(=O)[C@H](N)Cc2ccc3ccccc3c2)[C@@H](CCCNC(=N)N)CN1C(=O)Cc1c[nH]c2ccccc12 [Example 6, N-{3-[1-(2(R)-Amino-3-naphthalen-2-yl-propionyl)-4-(2-1H-indol-3-yl-acetyl)-5(R)-methyl-piperazin-2(S)-yl]-propyl}-guanidine] | 315 nM | 20% | 1820 nM | 35 nM | attenuate the binding of both α-MSH and AgRP to MC4-R | 35 nM | 1530 nM | 84% | 83 nM | 83 nM | pAg (“pAg” means partial agonist) | > 1000 nM | 0.2 | > 1000 nM | no intrinsic activity (intrinsic activity below 0.1 (10%) is classified as inactive or having no intrinsic activity) | no intrinsic activity (intrinsic activity below 0.1 (10%) is classified as inactive or having no intrinsic activity) | partial agonist (intrinsic activity between 0.1 (10%) and 0.7 (70%) is classified as a partial agonist) | 
2 | C[C@@H]1CN(C(=O)[C@H](N)Cc2ccc3ccccc3c2)[C@@H](CCCNC(=N)N)CN1C(=O)CCCc1c[nH]c2ccccc12 [Example 7] | 1200 nM | 0% | 657 nM | 90 nM | attenuate the binding of both α-MSH and AgRP to MC4-R | 90 nM | 271 nM | 82% | 133 nM | 133 nM | pAg (“pAg” means partial agonist) | 3800 nM | 0.4 | > 3000 nM | no intrinsic activity (intrinsic activity below 0.1 (10%) is classified as inactive or having no intrinsic activity) | no intrinsic activity (intrinsic activity below 0.1 (10%) is classified as inactive or having no intrinsic activity) | no intrinsic activity (intrinsic activity below 0.1 (10%) is classified as inactive or having no intrinsic activity) | 
3 | C[C@@H]1CN(C(=O)[C@H](N)Cc2ccc3ccccc3c2)[C@@H](CCCNC(=N)N)CN1CCc1c[nH]c2ccccc12 [Example 8, N-(3-{1-(2(R)-Amino-3-naphthalen-2-yl-propionyl)-4-[2-(1H-indol-3-yl)-ethyl]-5(R)-methyl-piperazin-2(S)-yl}-propyl)-guanidine] | 162 nM | 2% | 2120 nM | 37 nM | attenuate the binding of both α-MSH and AgRP to MC4-R | 37 nM | 808 nM | 89% | 56 nM | 56 nM | Ag | > 1000 nM | 0.9 | > 100 nM | no intrinsic activity (intrinsic activity below 0.1 (10%) is classified as inactive or having no intrinsic activity) | no intrinsic activity (intrinsic activity below 0.1 (10%) is classified as inactive or having no intrinsic activity) | no intrinsic activity (intrinsic activity below 0.1 (10%) is classified as inactive or having no intrinsic activity) | Inhibition at 1 μM (NDP-α-MSH) MC3-R ([2]; 1 μM compound): 27%; Inhibition at 1 μM (NDP-α-MSH) MC4-R ([3]; 1 μM compound): 93%; Inhibition at 1 μM (NDP-α-MSH) MC5-R ([4]; 1 μM compound): 51%; functional status at MC4-R ([6]; cAMP assay, mostly at 1 μM): full agonist
